Measurements from US7488832B2, “Azolylacylguanidines as β-secretase inhibitors” (Wyeth, priority 2005, dated 2009).

molecular target: human BACE1 (Homo sapiens, UniProt P56817); test: Fluorescent kinetic assay, human BACE1 (FRET peptide substrate WABC-6); assay type: biochemical; conditions: fluorescent kinetic assay, 25 μM substrate WABC-6, pH 4.5, room temperature; read-out: IC50 (μM) BACE 1;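 also: fluorescence monitored at excitation 320 nm and emission 420 nm over 30 min, with the substrate cleavage rate taken as the linear slope of the signal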
Sequence (P56817 46-501): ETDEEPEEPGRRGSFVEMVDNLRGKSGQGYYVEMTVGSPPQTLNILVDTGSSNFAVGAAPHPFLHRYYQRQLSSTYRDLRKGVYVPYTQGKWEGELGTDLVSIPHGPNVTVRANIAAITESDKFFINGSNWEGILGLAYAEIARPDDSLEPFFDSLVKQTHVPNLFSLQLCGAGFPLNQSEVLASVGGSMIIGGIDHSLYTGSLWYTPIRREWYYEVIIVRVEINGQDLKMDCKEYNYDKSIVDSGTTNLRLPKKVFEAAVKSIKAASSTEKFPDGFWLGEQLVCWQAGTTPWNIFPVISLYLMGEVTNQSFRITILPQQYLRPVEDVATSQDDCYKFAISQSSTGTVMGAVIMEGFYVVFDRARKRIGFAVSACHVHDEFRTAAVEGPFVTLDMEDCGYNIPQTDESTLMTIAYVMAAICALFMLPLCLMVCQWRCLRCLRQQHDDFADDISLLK

IC50 | Structure (SMILES)
0.11 to 1 µM | C=CCNC(=O)c1ccc(-c2ccc(-c3ccccc3)n2CC(=O)N=C(N)NCCCO)cc1 [Example 463]
0.11 to 1 µM | N#CCCNC(=O)c1ccc(-c2ccc(-c3ccccc3)n2CC(=O)N=C(N)NCCCO)cc1 [Example 465]
0.11 to 1 µM | CCCNC(=O)c1ccc(-c2ccc(-c3ccccc3)n2CC(=O)N=C(N)NCCCO)cc1 [Example 467]
0.11 to 1 µM | COCCNC(=O)c1ccc(-c2ccc(-c3ccccc3)n2CC(=O)N=C(N)NCCCO)cc1 [Example 468]
1.1 to 5 µM | CCC[C@H]1CC[C@H](c2ccc(-c3ccccc3)n2CC(=O)/N=C(\N)NCCCC#N)CC1 [Example 473, N-{(1E)-amino[(3-cyanopropyl)amino]methylene}-2-[2-phenyl-5-(trans-4-propylcyclohexyl)-1H-pyrrol-1-yl]acetamide]
1.1 to 5 µM | N#CCCCNC(=N)NC(=O)Cn1c(-c2ccccc2)ccc1C1CCCCC1 [Example 474, N-(3-Cyano-propyl)-N′-[2-(2-cyclohexyl-5-phenyl-pyrrol-1-yl)-acetyl]-guanidine]

The remaining lines, values behind:

Structure (SMILES) | IC50
NC(=NC(=O)Cn1c(-c2ccccc2)ccc1-c1ccc(C(=O)NC2CC2)cc1)NCCCO [Example 462] | 0.11 to 1 µM
NC(=NC(=O)Cn1c(-c2ccccc2)ccc1-c1ccc(C(=O)NCCO)cc1)NCCCO [Example 464] | 0.11 to 1 µM
CCC(C)NC(=O)c1ccc(-c2ccc(-c3ccccc3)n2CC(=O)N=C(N)NCCCO)cc1 (stereo not shown) [Example 469] | 0.11 to 1 µM
C=CCN(C)C(=O)c1ccc(-c2ccc(-c3ccccc3)n2CC(=O)N=C(N)NCCCO)cc1 [Example 470] | 0.11 to 1 µM
NC(=NC(=O)Cn1c(-c2ccccc2)ccc1-c1ccc(C(=O)NCC(F)(F)C(F)(F)F)cc1)NCCCO [Example 472] | 1.1 to 5 µM

test system: not given; test: not given; conditions: not given

melting point | Structure (SMILES)
201 to 203 °C | NC(N)=NC(=O)Cn1c(C(=O)c2ccccc2)ccc1-c1ccccc1 [Example 455, N″-[(2-benzoyl-5-phenyl-1H-pyrrol-1-yl)acetyl]guanidine]
175 to 177 °C | N=C(N)NC(=O)Cn1c(C(=O)c2ccco2)ccc1-c1ccccc1 [Example 456]
155 to 158 °C | N=C(N)NC(=O)Cn1c(Cc2ccccc2)ccc1-c1ccccc1 [Example 458, N-[(2-benzyl-5-phenyl-1H-pyrrol-1-yl)acetyl]guanidine]
80 to 82 °C | N=C(N)NC(=O)Cn1c(Cc2ccco2)ccc1-c1ccccc1 [Example 459, N-[amino(imino)methyl]-2-[2-(2-furylmethyl)-5-phenyl-1H-pyrrol-1-yl]acetamide]
99 to 120 °C | N=C(N)NC(=O)Cn1c(Cc2cccs2)ccc1-c1ccccc1 [Example 460, N-[amino(imino)methyl]-2-[2-phenyl-5-(thien-2-ylmethyl)-1H-pyrrol-1-yl]acetamide]
